Test results reported in ChEMBL document CHEMBL5365454, “Strong Binding of C-Glycosylic1,2-Thiodisaccharides to Galectin-3─Enthalpy-Driven Affinity Enhancement by Water-Mediated Hydrogen Bonds” (J Med Chem, 2023).

Experiments:
[1] = molecular target: Galectin-3 (Homo sapiens) (UniProt P17931); assay: Binding affinity to recombinant human galectin-3 carbohydrate recognition domain expressed in Escherichia coli BL21 (DE3) cells assessed as change in enthalpy by Nano-ITC analysis
[2] = molecular target: Galectin-3 (Homo sapiens) (UniProt P17931); assay: Binding affinity to recombinant human galectin-3 carbohydrate recognition domain expressed in Escherichia coli BL21 (DE3) cells assessed as gibbs free energy change by Nano-ITC analysis
[3] = molecular target: Galectin-3 (Homo sapiens) (UniProt P17931); assay: Binding affinity to recombinant human galectin-3 carbohydrate recognition domain expressed in Escherichia coli BL21 (DE3) cells assessed as change in entropy by Nano-ITC analysis

Chain of Galectin-3 (Homo sapiens) (P17931 whole entry, the tested form may be a part): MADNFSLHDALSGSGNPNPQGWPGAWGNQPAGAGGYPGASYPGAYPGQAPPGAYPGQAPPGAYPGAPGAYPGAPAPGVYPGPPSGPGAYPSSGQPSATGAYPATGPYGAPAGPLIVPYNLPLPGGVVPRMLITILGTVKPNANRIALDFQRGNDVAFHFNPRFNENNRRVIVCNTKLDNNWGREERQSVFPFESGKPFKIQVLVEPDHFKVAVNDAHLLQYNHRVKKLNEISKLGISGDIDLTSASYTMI

Molecule	deltaH [1]	deltaG [2]	-TdeltaS [3]
OC[C@H]1O[C@@H](S[C@@H]2CO[C@H](CO)[C@H](O)[C@@H]2O)[C@H](O)[C@@H](O)[C@H]1O	-6.48 kcal/mol	–	0.0956 kcal/mol
OC[C@H]1O[C@@H](S[C@@H]2O[C@H](CO)[C@H](O)[C@H](O)[C@H]2O)[C@H](O)[C@@H](O)[C@H]1O	-4.73 kcal/mol	–	-1.21 kcal/mol
COC(=O)[C@@H]1O[C@H](CO)[C@H](O)[C@H](O)[C@@H]1S[C@@H]1O[C@H](CO)[C@H](O)[C@H](O)[C@H]1O	-7.72 kcal/mol	–	1.24 kcal/mol

Continued, values first:

deltaH [1]	deltaG [2]	-TdeltaS [3]	Molecule
-5.47 kcal/mol	-5.95 kcal/mol	-0.485 kcal/mol	LACTOSE, ANHYDROUS
-7.74 kcal/mol	–	1.15 kcal/mol	NC(=O)[C@@H]1O[C@H](CO)[C@@H](O)[C@H](O)[C@@H]1S[C@@H]1O[C@H](CO)[C@H](O)[C@H](O)[C@H]1O
–	–	0.0478 kcal/mol	NC(=O)[C@@H]1O[C@H](CO)[C@H](O)[C@H](O)[C@@H]1S[C@@H]1O[C@H](CO)[C@H](O)[C@H](O)[C@H]1O
